The values that follow come from patent US20260285863A1, “COMPOUNDS CAPABLE OF MODULATING GPR65” (Pathios Therapeutics Limited, priority 2023, published 2026).

As usually defined, the IC50 is the concentration at which inhibition is half-maximal.

The test deals with T1, human recombinant GPR65 (Homo sapiens, UniProt Q8IYL9).
T1 construct: host or cells: 1321N1 human astrocytoma cells (1321N1-hrGPR65)
Kind of test: Human GPR65 cAMP HTRF antagonist assay. Format: cell-based. The settings on record: 1321N1-hrGPR65 cells, assay pH 7.2, cAMP HTRF; read-out: hGPR65 IC50. The source says:
The “Human GPR65 cyclic adenosine monophosphate (cAMP) Homogeneous Time Resolved Fluorescence (HTRF) antagonist assay”, or simply “cAMP assay”, as described in the accompanying examples, can be used to measure the potency of GPR65 modulators, which is expressed as the concentration of compound required to reduce the increase in cAMP concentration upon GPR65 activation by 50% (i.e. an IC50).
Human GPR65 Cyclic Adenosine Monophosphate (cAMP) Homogeneous Time Resolved Fluorescence (HTRF) Antagonist Assay Procedure
IC50data was obtained by the following procedure:
1321N1 human astrocytoma cells stably expressing human recombinant GPR65 (1321N1-hrGPR65 cells, EuroscreenFast) were cultured according to the vendor's instructions.
Compounds were tested for their ability to antagonise GPR65, through measuring the concentration of cytoplasmic cAMP following treatment of the cells at a pH of 7.2 to activate GPR65 signalling and addition of the compound to be tested. The extent to which the expected rise in cAMP concentration upon GPR65 activation was suppressed by the added compound is indicative of its potency. The assay was carried out according to EuroscreenFast assay Methodology as follows.
On the day of the assay, test compounds were added to 384-well, low volume, white microtiter plates by acoustic dispensing. KRH buffer (5 mM KCl, 1.25 mM MgSO4, 124 mM NaCl, 25 mM HEPES, 13.3 mM Glucose, 1.25 mM KH2PO4 and 1.45 mM CaCl2) was adjusted to pH 6.5, pH 7.6 and pH 8.4 by adding NaOH. 1321N1-hGPR65 cells were rapidly thawed and diluted in KRH, pH 7.6 prior to centrifugation at 300×g for 5 min and resuspension in assay buffer (KRH, pH 7.6, supplemented with 1 mM 3-isobutyl-1-methylxanthine (IBMX) and 200 μM ethylenediaminetetraacetic acid (EDTA)). Cells were added to assay plates at a density of 2,000 cells per well in a volume of […]. Assay plates were briefly centrifuged at 100×g and then incubated at room temperature for 30 min. Cells were stimulated by the addition of 5 μL KRH, pH 6.5, to achieve an assay pH of 7.2, while control wells received […] KRH, pH 8.4 to achieve an assay pH of 7.9. Assay plates were briefly centrifuged at 100×g and then incubated at room temperature for 30 min.
Accumulation of cAMP was detected by cAMP HTRF kit (Cisbio). d2-labeled cAMP and cryptate-labeled anti-cAMP antibody in Lysis and Detection Buffer (Cisbio) were added to assay plates, and the plates were incubated at room temperature for 1 h. HTRF measurements were performed using a Pherastar FSX instrument. Acceptor and donor emission signals were measured at 665 nm and 620 nm, respectively, and HTRF ratios were calculated as signal665 nm/signal620 nm×104. Data were normalised to high and low control values and fitted with 4-parameter logistic regression to determine hGPR65 IC50 values for the test compounds, which are shown in Table 1.
In general terms: In TR-FRET formats the signal depends on donor and acceptor labels being close together.

Bounds are passed on as bounds.

T1 sequence (Q8IYL9 whole entry): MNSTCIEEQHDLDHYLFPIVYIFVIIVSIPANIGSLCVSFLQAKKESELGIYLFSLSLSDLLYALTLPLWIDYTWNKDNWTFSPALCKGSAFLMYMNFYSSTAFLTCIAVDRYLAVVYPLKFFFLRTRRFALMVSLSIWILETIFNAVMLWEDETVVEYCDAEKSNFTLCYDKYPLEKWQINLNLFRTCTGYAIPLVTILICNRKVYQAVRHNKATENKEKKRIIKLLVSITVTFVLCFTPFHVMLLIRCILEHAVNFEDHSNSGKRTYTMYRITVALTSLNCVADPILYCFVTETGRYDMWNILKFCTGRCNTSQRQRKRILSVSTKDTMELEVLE

In the case of `O=C(Nc1cc(Cl)c(-c2ccc(OCC34COC(C3)C4)nc2)cc1F)N1[C@H]2CC[C@@H]1c1n[nH]c(=O)cc1C2` [Compound 1, (6S,9R)-N-(4-(6-((2-oxabicyclo[2.1.1]hexan-4-yl)methoxy)pyridin-3-yl)-5-chloro-2-fluorophenyl)-3-oxo-3,5,6,7,8,9-hexahydro-2H-6,9-epiminocyclohepta[c]pyridazine-10-carboxamide], the IC50 is < 500 nM. Consider `O=C(Nc1cc(Cl)c(-c2ccc(OCC3CC3(F)F)nc2)cc1F)N1[C@H]2CC[C@@H]1c1c[nH]c(=O)cc1C2` (stereo partly drawn) [Compound 38, (6S,9R)-N-(5-chloro-4-(6-((2,2-difluorocyclopropyl)methoxy)pyridin-3-yl)-2-fluorophenyl)-3-oxo-3,5,6,7,8,9-hexahydro-2H-6,9-epiminocyclohepta[c]pyridine-10-carboxamide], for which the IC50 is < 500 nM. The same measure for `O=C(Nc1cc(Cl)c(COc2cccc(F)n2)cc1F)N1[C@H]2CC[C@@H]1c1n[nH]c(=O)cc1C2` [Compound 52, (6S,9R)-N-(5-Chloro-2-fluoro-4-(((6-fluoropyridin-2-yl)oxy)methyl)phenyl)-3-oxo-3,5,6,7,8,9-hexahydro-2H-6,9-epiminocyclohepta[c]pyridazine-10-carboxamide]: < 500 nM; for `O=C(Nc1cc(Cl)c(Cl)cn1)N1[C@@H]2CC[C@H]1[C@@H](F)c1c2ccnc1F` [Compound 42, (5R,8S,9S)-N-(4,5-dichloropyridin-2-yl)-1,9-difluoro-6,7,8,9-tetrahydro-5H-5,8-epiminocyclohepta[c]pyridine-10-carboxamide]: < 500 nM; for `O=C(Nc1cc(Cl)c(-c2ccc(OC3CCOCC3)nc2)cc1F)N1[C@H]2CC[C@@H]1c1n[nH]c(=O)cc1C2` [Compound 84, (6S,9R)-N-(5-Chloro-2-fluoro-4-(6-((tetrahydro-2H-pyran-4-yl)oxy)pyridin-3-yl)phenyl)-3-oxo-3,5,6,7,8,9-hexahydro-2H-6,9-epiminocyclohepta[c]pyridazine-10-carboxamide]: < 500 nM. With `O=C(Nc1cc(Cl)c(-c2ccc3nonc3c2)cn1)N1[C@@H]2CC[C@H]1[C@@H](F)c1c2ccnc1F` [Compound 76, (5R,8S,9S)-N-(5-(Benzo[c][1,2,5]oxadiazol-5-yl)-4-chloropyridin-2-yl)-1,9-difluoro-6,7,8,9-tetrahydro-5H-5,8-epiminocyclohepta[c]pyridine-10-carboxamide], the IC50 is < 500 nM. Consider `O=C(Nc1cc(Cl)c(COc2cccc(OCC(F)(F)F)n2)cc1F)N1[C@H]2CC[C@@H]1c1c[nH]c(=O)cc1C2` [Compound 57, (6S,9R)-N-(5-chloro-2-fluoro-4-(((6-(2,2,2-trifluoroethoxy)pyridin-2-yl)oxy)methyl)phenyl)-3-oxo-3,5,6,7,8,9-hexahydro-2H-6,9-epiminocyclohepta[c]pyridine-10-carboxamide], for which the IC50 is < 500 nM. The same measure for `O=C(Nc1cc(Cl)c(-c2ccc(OC[C@H]3CCOC3)nc2)cc1F)N1[C@H]2CC[C@@H]1c1c[nH]c(=O)cc1C2` (single isomer, unassigned) [Compound 48]: < 500 nM; for `O=C(Nc1cc(Cl)c(COc2ccc(OCC(F)(F)F)cn2)cc1F)N1[C@H]2CC[C@@H]1c1c[nH]c(=O)cc1C2` [Compound 54, (6S,9R)-N-(5-chloro-2-fluoro-4-(((5-(2,2,2-trifluoroethoxy)pyridin-2-yl)oxy)methyl)phenyl)-3-oxo-3,5,6,7,8,9-hexahydro-2H-6,9-epiminocyclohepta[c]pyridine-10-carboxamide]: < 500 nM. The same measure for `O=C(Nc1cc(Cl)c(-c2ccc(OCC(F)(F)F)nn2)cc1F)N1[C@H]2CC[C@@H]1c1n[nH]c(=O)cc1C2` [Compound 6, (6S,9R)-N-(5-chloro-2-fluoro-4-(6-(2,2,2-trifluoroethoxy)pyridazin-3-yl)phenyl)-3-oxo-3,5,6,7,8,9-hexahydro-2H-6,9-epiminocyclohepta[c]pyridazine-10-carboxamide]: < 500 nM. `O=C(Nc1cc(Cl)c(-c2ccc(OCC3CCC3)nc2)cc1F)N1[C@H]2CC[C@@H]1c1n[nH]c(=O)cc1C2` [Compound 20, (6S,9R)-N-(5-chloro-4-(6-(cyclobutylmethoxy)pyridin-3-yl)-2-fluorophenyl)-3-oxo-3,5,6,7,8,9-hexahydro-2H-6,9-epiminocyclohepta[c]pyridazine-10-carboxamide]: the IC50 is < 500 nM.

Consider `O=C(Nc1cc(Cl)c(-c2ccc(OCC3CCC3)nc2)cc1F)N1[C@H]2CC[C@@H]1c1c[nH]c(=O)cc1C2` [Compound 28, (6S,9R)-N-(5-chloro-4-(6-(cyclobutylmethoxy)pyridin-3-yl)-2-fluorophenyl)-3-oxo-3,5,6,7,8,9-hexahydro-2H-6,9-epiminocyclohepta[c]pyridine-10-carboxamide], for which the IC50 was < 500 nM. In the case of `O=C(Nc1cc(Cl)c(NCc2ccc(OCC(F)(F)F)cn2)cc1F)N1[C@H]2CC[C@@H]1c1n[nH]c(=O)cc1C2` [Compound 65, (6S,9R)-N-(5-chloro-2-fluoro-4-(((5-(2,2,2-trifluoroethoxy)pyridin-2-yl)methyl)amino)phenyl)-3-oxo-3,5,6,7,8,9-hexahydro-2H-6,9-epiminocyclohepta[c]pyridazine-10-carboxamide], the IC50 was 500 to 5000 nM. The same measure for `O=C(Nc1cc(Cl)c(-c2ccc(OC3CCN(CC(F)(F)F)C3)nc2)cc1F)N1[C@H]2CC[C@@H]1c1c[nH]c(=O)cc1C2` (stereo partly drawn) [Compound 27, (6S,9R)-N-(5-chloro-2-fluoro-4-(6-((1-(2,2,2-trifluoroethyl)pyrrolidin-3-yl)oxy)pyridin-3-yl)phenyl)-3-oxo-3,5,6,7,8,9-hexahydro-2H-6,9-epiminocyclohepta[c]pyridine-10-carboxamide]: < 500 nM; for `COCCOCCO[C@H]1C[C@@H](Oc2ccc(-c3cc(F)c(NC(=O)N4[C@H]5CC[C@@H]4c4c[nH]c(=O)cc4C5)cc3Cl)cn2)C1` [Compound 15, (6S,9R)-N-(5-chloro-2-fluoro-4-(6-((1s,3S)-3-(2-(2-methoxyethoxy)ethoxy)cyclobutoxy)pyridin-3-yl)phenyl)-3-oxo-3,5,6,7,8,9-hexahydro-2H-6,9-epiminocyclohepta[c]pyridine-10-carboxamide]: < 500 nM. The value for `O=C(Nc1cc(Cl)c(-c2ccc(OC[C@@H]3CC3(F)F)nc2)cc1F)N1[C@H]2CC[C@@H]1c1n[nH]c(=O)cc1C2` [Compound 83, (6S,9R)-N-(5-Chloro-4-(6-(((S)-2,2-difluorocyclopropyl)methoxy)pyridin-3-yl)-2-fluorophenyl)-3-oxo-3,5,6,7,8,9-hexahydro-2H-6,9-epiminocyclohepta[c]pyridazine-10-carboxamide] was < 500 nM. As for `O=C(Nc1cc(Cl)c(-c2ccc(OC[C@@H]3CC3(F)F)nc2)cc1F)N1[C@H]2CC[C@@H]1c1c[nH]c(=O)cc1C2` [Compound 85, (6S,9R)-N-(5-Chloro-4-(6-(((S)-2,2-difluorocyclopropyl)methoxy)pyridin-3-yl)-2-fluorophenyl)-3-oxo-3,5,6,7,8,9-hexahydro-2H-6,9-epiminocyclohepta[c]pyridine-10-carboxamide], the IC50 is < 500 nM. The value for `O=C(Nc1cc(Cl)c(Cl)cn1)N1[C@H]2CC[C@@H]1c1ccncc1C2` [Compound 44, (5R,8S)-N-(4,5-dichloropyridin-2-yl)-6,7,8,9-tetrahydro-5H-5,8-epiminocyclohepta[c]pyridine-10-carboxamide] was < 500 nM; that for `O=C(Nc1cc(Cl)c(-c2ccc(OCC3CC3(F)F)nc2)cc1F)N1[C@H]2CC[C@@H]1c1ccnc(F)c1C2` (stereo partly drawn) [Compound 14, (5R,8S)-N-(5-chloro-4-(6-((2,2-difluorocyclopropyl)methoxy)pyridin-3-yl)-2-fluorophenyl)-1-fluoro-6,7,8,9-tetrahydro-5H-5,8-epiminocyclohepta[c]pyridine-10-carboxamide] was < 500 nM; that for `O=C(Nc1cc(Cl)c(-c2ccc(OCC(F)(F)F)nc2)cc1F)N1[C@@H]2CC[C@H]1C(F)(F)c1c2ccnc1F` [Compound 71, (5R,8S)-N-(5-Chloro-2-fluoro-4-(6-(2,2,2-trifluoroethoxy)pyridin-3-yl)phenyl)-1,9,9-trifluoro-6,7,8,9-tetrahydro-5H-5,8-epiminocyclohepta[c]pyridine-10-carboxamide] was < 500 nM.
